This is an account of results in patent publication US7550625B2, “Esters of florfenicol” (priority 2007, dated 2009).

Molecules are shown by their SMILES.

The test system of one series is various bacteria. To be noted: cited from earlier work.
Series [1] relates to variety of microorganisms. Conditions: cited from earlier work.
The conditions of series [2]: added to serum in vitro; compared with florfenicol butyrate.
Series [3] in a line: Serum concentration of florfenicol after subcutaneous injection to an animal. It is filed as in vivo. From the text:
A lower Cmax advantageously avoids undesirable side-effects.

In the case of `CS(=O)(=O)c1ccc([C@@H](O)[C@@H](CF)NC(=O)C(Cl)Cl)cc1` [florfenicol], the “typical minimum inhibitory concentrations (MICs)” value in the series with various bacteria is 0.3 to 1 µg/mL. The activity against microorganisms entry in series [1] (Citrobacter, Proteus mirabilis, Proteus sp., Shigella, Salmonella, Providencia, Bacteroides, Staphylococcos aureus, Enterococci, Pasteurlla haemolytica, Pasteurella multocida, Haemophilus somnus, Haemophilus influenza) is “active”. Besides, in series [1] (Serratia marcescens, Pseudomonas aeruginosa, Acinetobacter), the “resistance of microorganisms to the substance” value is on record as “resistant”.
`COCCOCC(=O)O[C@H](c1ccc(S(C)(=O)=O)cc1)[C@@H](CF)NC(=O)C(Cl)Cl` [formula (Ia)]: in series [2], the “rate of hydrolysis in serum” value is on record as “hydrolyzed faster than florfenicol butyrate”. Also, the “Cmax for the serum concentration of florfenicol” value in series [3] (administered to an animal, compared with florfenicol) is on record as “lower than the Cmax for the serum concentration of florfenicol when florfenicol is administered”. In addition, the “time period for which serum concentration of florfenicol is therapeutically effective” value in series [3] (subcutaneous injection, compared with florfenicol or florfenicol butyrate) is given as “longer”.
For `CN(C)CC(=O)OC(c1ccc(S(C)(=O)=O)cc1)C(CF)NC(=O)C(Cl)Cl` (stereo not shown) [formula (Ib)], in series [3] (when administered to an animal, expected, compared with florfenicol and other florfenicol esters), the “pharmacokinetic and pharmacodynamic profile” value was “superior pharmacokinetic and pharmacodynamic profile”.
